Measurements from patent US11020398B2, “Amino-pyrrolopyrimidinone compounds and methods of use thereof” (ArQule, Inc., priority 2016, dated 2021).

How the values were obtained:
[1] = biological target: full-length activated BTK (wildtype) (Homo sapiens (Human), UniProt Q06187); experiment: AlphaScreen assay, wild-type BTK; format: biochemical
Procedure: (§1) The activated BTK was frozen in 50 μl aliquots (125-150 μg/ml).
(§2) BTK activity was assayed using a PLCγ2-derived biotinylated peptide substrate (biotin-[…]-OH) and AlphaScreen™ (Amplified Luminescent Proximity Homogeneous Assay) technology. The extent of peptide phosphorylation was determined by using acceptor beads conjugated to phosphotyrosine antibody that recognized the phosphorylated peptide and donor beads conjugated to streptavidin that binds to the biotin on the peptide. Excitation of the donor beads converted ambient oxygen to excited singlet oxygen which when in close proximity to acceptor beads, reacted with acceptor beads resulting in signal amplification.
(§3) Test inhibitors and controls were prepared in 10% DMSO at 10-fold the desired final concentration and added to each well of a reaction plate (Corning 96-well half-area solid white nonbinding surface plate) in a volume of 2.5 μl. […] The plate was incubated for 120 min at room temperature and the reaction stopped by the addition of 10 μl stop/detection mixture containing 35 mM EDTA, 50 ug/ml AlphaScreen™ Streptavidin Donor beads (final concentration is 500 ng/well) and AlphaScreen™ Phospho-tyrosine (P-Tyr-100) Acceptor beads (final concentration is 500 ng/well) under green light conditions. The plate was incubated overnight at room temperature in the dark and the plates read on the BMG PolarStar Omega ([…], Gain=4000). Data were archived and analyzed with a 4-parameter fit to generate IC50 values using the CDD Vault from Collaborative Drug Discovery.

[2] = biological target: full-length activated BTK mutant C481S (Homo sapiens (Human), UniProt Q06187, C481S); experiment: AlphaScreen assay, BTK mutant C481S; format: biochemical; conditions: for inhibition at 10 µM: read-out: BTK-C481S % @ 10 uM, @ 10 uM
Procedure: as §1, §2, §3

Chain of full-length activated BTK (wildtype) (Q06187 whole entry): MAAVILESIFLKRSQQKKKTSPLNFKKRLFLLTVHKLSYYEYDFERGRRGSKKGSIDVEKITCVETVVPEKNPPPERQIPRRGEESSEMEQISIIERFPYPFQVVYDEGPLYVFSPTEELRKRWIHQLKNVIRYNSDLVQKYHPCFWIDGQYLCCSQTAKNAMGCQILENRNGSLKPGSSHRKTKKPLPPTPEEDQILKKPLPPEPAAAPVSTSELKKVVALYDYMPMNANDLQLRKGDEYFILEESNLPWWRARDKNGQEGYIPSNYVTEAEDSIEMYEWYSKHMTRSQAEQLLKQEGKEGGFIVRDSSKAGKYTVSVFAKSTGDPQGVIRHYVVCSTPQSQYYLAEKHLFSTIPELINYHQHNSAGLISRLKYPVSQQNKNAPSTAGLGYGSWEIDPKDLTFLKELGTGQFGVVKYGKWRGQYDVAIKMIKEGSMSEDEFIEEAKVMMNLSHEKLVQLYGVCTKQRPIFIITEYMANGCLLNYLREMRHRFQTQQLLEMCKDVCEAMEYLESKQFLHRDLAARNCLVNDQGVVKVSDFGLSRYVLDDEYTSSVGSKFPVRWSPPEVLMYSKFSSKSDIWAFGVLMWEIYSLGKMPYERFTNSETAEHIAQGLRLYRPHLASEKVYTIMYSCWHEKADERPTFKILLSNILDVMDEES
Chain of full-length activated BTK mutant C481S (Q06187 whole entry C481S): as the sequence (Q06187 whole entry) above, with C481S counted along it

| IC50 [1] [nM] | IC50 [2] [nM] | inhibition at 10 µM [2] [%] | inhibition at 10 µM ([1]; read-out: BTK % @ 10 uM, @ 10 uM) [%] | SMILES |
| --- | --- | --- | --- | --- |
| 19.8 | 137 | – | – | O=C(c1ccc(Oc2ccccc2)cc1Cl)c1c[nH]c2ncnc(NC[C@H]3CN[C@H](CO)C3)c12 [Compound I-369e, (2-chloro-4-phenoxyphenyl)(4-((((3R,5S)-5-(hydroxymethyl)pyrrolidin-3-yl)methyl)amino)-7H-pyrrolo[2,3-d]pyrimidin-5-yl)methanone] |
| 59.5 | 49.8 | – | – | CN1C[C@H](CNc2ncnc3[nH]cc(C(=O)c4ccc(Oc5ccccc5)cc4Cl)c23)C[C@H]1CO [Compound I-370e, (2-chloro-4-phenoxyphenyl)(4-((((3S,5S)-5-(hydroxymethyl)-1-methylpyrrolidin-3-yl)methyl)amino)-7H-pyrrolo[2,3-d]pyrimidin-5-yl)methanone] |
| 20.9 | 116 | – | – | O=C(Nc1ccc(Cl)c(C(=O)c2c[nH]c3ncnc(N[C@@H]4CC[C@@H](CO)OC4)c23)c1)c1ccccc1 [Compound I-601, N-(4-chloro-3-(4-(((3R,6S)-6-(hydroxymethyl)tetrahydro-2H-pyran-3-yl)amino)-7H-pyrrolo[2,3-d]pyrimidine-5-carbonyl)phenyl)benzamide] |
| 140 | 317 | – | – | O=C(Cc1ccccc1)Nc1ccc(Cl)c(C(=O)c2c[nH]c3ncnc(N[C@@H]4CC[C@@H](CO)OC4)c23)c1 [Compound I-602, N-(4-chloro-3-(4-(((3R,6S)-6-(hydroxymethyl)tetrahydro-2H-pyran-3-yl)amino)-7H-pyrrolo[2,3-d]pyrimidine-5-carbonyl)phenyl)-2-phenylacetamide] |
| 466 | 1770 | – | – | O=C(c1cc(NC(=O)C2CCOCC2)ccc1Cl)c1c[nH]c2ncnc(N[C@@H]3CC[C@@H](CO)OC3)c12 [Compound I-603, N-(4-chloro-3-(4-(((3R,6S)-6-(hydroxymethyl)tetrahydro-2H-pyran-3-yl)amino)-7H-pyrrolo[2,3-d]pyrimidine-5-carbonyl)phenyl)tetrahydro-2H-pyran-4-carboxamide] |
| 304 | 731 | – | – | O=C(Nc1ccc(Cl)c(C(=O)c2c[nH]c3ncnc(N[C@@H]4CC[C@@H](CO)OC4)c23)c1)c1cncs1 [Compound I-604, N-(4-chloro-3-(4-(((3R,6S)-6-(hydroxymethyl)tetrahydro-2H-pyran-3-yl)amino)-7H-pyrrolo[2,3-d]pyrimidine-5-carbonyl)phenyl)thiazole-5-carboxamide] |
| 467 | 1860 | – | – | O=C(c1cc(NC(=O)C2(c3ccccc3)CC2)ccc1Cl)c1c[nH]c2ncnc(N[C@@H]3CC[C@@H](CO)OC3)c12 [Compound I-605, N-(4-chloro-3-(4-(((3R,6S)-6-(hydroxymethyl)tetrahydro-2H-pyran-3-yl)amino)-7H-pyrrolo[2,3-d]pyrimidine-5-carbonyl)phenyl)-1-phenylcyclopropane-1-carboxamide] |
| 0.98 | 55.9 | – | – | O=C(Nc1ccc(Cl)c(C(=O)c2c[nH]c3ncnc(N[C@@H]4CC[C@@H](CO)OC4)c23)c1)c1cc2c(cn1)CCCC2 [Compound I-606, N-(4-chloro-3-(4-(((3R,6S)-6-(hydroxymethyl)tetrahydro-2H-pyran-3-yl)amino)-7H-pyrrolo[2,3-d]pyrimidine-5-carbonyl)phenyl)-5,6,7,8-tetrahydroisoquinoline-3-carboxamide] |
| 13.8 | 216 | – | – | O=C(Nc1ccc(Cl)c(C(=O)c2c[nH]c3ncnc(N[C@@H]4CC[C@@H](CO)OC4)c23)c1)c1nccc2ccccc12 [Compound I-607, N-(4-chloro-3-(4-(((3R,6S)-6-(hydroxymethyl)tetrahydro-2H-pyran-3-yl)amino)-7H-pyrrolo[2,3-d]pyrimidine-5-carbonyl)phenyl)isoquinoline-1-carboxamide] |
| 8.19 | 187 | – | – | O=C(Nc1ccccc1)Nc1ccc(Cl)c(C(=O)c2c[nH]c3ncnc(N[C@@H]4CC[C@@H](CO)OC4)c23)c1 [Compound I-608, 1-(4-chloro-3-(4-(((3R,6S)-6-(hydroxymethyl)tetrahydro-2H-pyran-3-yl)amino)-7H-pyrrolo[2,3-d]pyrimidine-5-carbonyl)phenyl)-3-phenylurea] |
| 114 | 519 | – | – | O=C(Nc1cccnc1)Nc1ccc(Cl)c(C(=O)c2c[nH]c3ncnc(N[C@@H]4CC[C@@H](CO)OC4)c23)c1 [Compound I-609, 1-(4-chloro-3-(4-(((3R,6S)-6-(hydroxymethyl)tetrahydro-2H-pyran-3-yl)amino)-7H-pyrrolo[2,3-d]pyrimidine-5-carbonyl)phenyl)-3-(pyridin-3-yl)urea] |
| 491 | 1150 | – | – | COCCNC(=O)c1ccc(C(=O)c2c[nH]c3ncnc(N[C@@H]4CC[C@@H](CO)OC4)c23)c(Cl)c1 [Compound I-610, 3-chloro-4-(4-(((3R,6S)-6-(hydroxymethyl)tetrahydro-2H-pyran-3-yl)amino)-7H-pyrrolo[2,3-d]pyrimidine-5-carbonyl)-N-(2-methoxyethyl) benzamide] |
| 1140 | 1510 | – | – | O=C(c1ccc(C(=O)N2CCOCC2)cc1Cl)c1c[nH]c2ncnc(N[C@@H]3CC[C@@H](CO)OC3)c12 [Compound I-611, (3-chloro-4-(4-(((3R,6S)-6-(hydroxymethyl)tetrahydro-2H-pyran-3-yl)amino)-7H-pyrrolo[2,3-d]pyrimidine-5-carbonyl)phenyl)(morpholino) methanone] |
| 1630 | – | 82 | – | O=C(c1cc(C(=O)N2CCOCC2)ccc1Cl)c1c[nH]c2ncnc(N[C@@H]3CC[C@@H](CO)OC3)c12 [Compound I-612, (4-chloro-3-(4-(((3R,6S)-6-(hydroxymethyl)tetrahydro-2H-pyran-3-yl)amino)-7H-pyrrolo[2,3-d]pyrimidine-5-carbonyl)phenyl)(morpholino) methanone] |
| – | – | 64 | 87 | O=C(NCCN1CCOCC1)c1ccc(C(=O)c2c[nH]c3ncnc(N[C@@H]4CC[C@@H](CO)OC4)c23)c(Cl)c1 [Compound I-613, 3-chloro-4-(4-(((3R,6S)-6-(hydroxymethyl)tetrahydro-2H-pyran-3-yl)amino)-7H-pyrrolo[2,3-d]pyrimidine-5-carbonyl)-N-(2-morpholinoethyl) benzamide] |
| 142 | 228 | – | – | N#Cc1cccc(NC(=O)c2ccc(C(=O)c3c[nH]c4ncnc(N[C@@H]5CC[C@@H](CO)OC5)c34)c(Cl)c2)c1 [Compound I-614, 3-chloro-N-(3-cyanophenyl)-4-(4-(((3R,6S)-6-(hydroxymethyl)tetrahydro-2H-pyran-3-yl)amino)-7H-pyrrolo[2,3-d]pyrimidine-5-carbonyl)benzamide] |
| 86.4 | 34.1 | – | – | O=C(c1ccc(C(=O)N2CCc3ccccc3C2)cc1Cl)c1c[nH]c2ncnc(N[C@@H]3CC[C@@H](CO)OC3)c12 [Compound I-615, (2-chloro-4-(1,2,3,4-tetrahydroisoquinoline-2-carbonyl)phenyl)(4-(((3R,6S)-6-(hydroxymethyl)tetrahydro-2H-pyran-3-yl)amino)-7H-pyrrolo[2,3-d]pyrimidin-5-yl)methanone] |
| 116 | 506 | – | – | O=C(c1ccc(C(=O)N2CCN(c3ccccn3)CC2)cc1Cl)c1c[nH]c2ncnc(N[C@@H]3CC[C@@H](CO)OC3)c12 [Compound I-616, (3-chloro-4-(4-(((3R,6S)-6-(hydroxymethyl)tetrahydro-2H-pyran-3-yl)amino)-7H-pyrrolo[2,3-d]pyrimidine-5-carbonyl)phenyl)(4-(pyridin-2-yl)piperazin-1-yl)methanone] |
| 16.2 | 48.7 | – | – | O=C(c1ccc(C(=O)N2CCCCC2)cc1Cl)c1c[nH]c2ncnc(N[C@@H]3CC[C@@H](CO)OC3)c12 [Compound I-617, (3-chloro-4-(4-(((3R,6S)-6-(hydroxymethyl)tetrahydro-2H-pyran-3-yl)amino)-7H-pyrrolo[2,3-d]pyrimidine-5-carbonyl)phenyl)(piperidin-1-yl)methanone] |
| 87.4 | 399 | – | – | O=C(NCc1ccccc1)c1ccc(C(=O)c2c[nH]c3ncnc(N[C@@H]4CC[C@@H](CO)OC4)c23)c(Cl)c1 [Compound I-618, N-benzyl-3-chloro-4-(4-(((3R,6S)-6-(hydroxymethyl)tetrahydro-2H-pyran-3-yl)amino)-7H-pyrrolo[2,3-d]pyrimidine-5-carbonyl)benzamide] |
| 376 | 942 | – | – | Cn1cc(NC(=O)c2ccc(C(=O)c3c[nH]c4ncnc(N[C@@H]5CC[C@@H](CO)OC5)c34)c(Cl)c2)cn1 [Compound I-619, 3-chloro-4-(4-(((3R,6S)-6-(hydroxymethyl)tetrahydro-2H-pyran-3-yl)amino)-7H-pyrrolo[2,3-d]pyrimidine-5-carbonyl)-N-(1-methyl-1H-pyrazol-4-yl)benzamide] |
| 598 | – | 70 | – | CN1CCN(C(=O)c2ccc(C(=O)c3c[nH]c4ncnc(N[C@@H]5CC[C@@H](CO)OC5)c34)c(Cl)c2)CC1 [Compound I-620, (3-chloro-4-(4-(((3R,6S)-6-(hydroxymethyl)tetrahydro-2H-pyran-3-yl)amino)-7H-pyrrolo[2,3-d]pyrimidine-5-carbonyl)phenyl)(4-methylpiperazin-1-yl)methanone] |
